# Results as given in patent US20250250230A1, “HETEROCYCLIC COMPOUND” (TAKEDA PHARMACEUTICAL COMPANY LIMITED, priority 2022, published 2025).
# Molecular target: T1, human orexin type 2 receptor (Homo sapiens, UniProt O43614)
# T1 construct: expressed in transfected cells
# T1 sequence (O43614 1-444): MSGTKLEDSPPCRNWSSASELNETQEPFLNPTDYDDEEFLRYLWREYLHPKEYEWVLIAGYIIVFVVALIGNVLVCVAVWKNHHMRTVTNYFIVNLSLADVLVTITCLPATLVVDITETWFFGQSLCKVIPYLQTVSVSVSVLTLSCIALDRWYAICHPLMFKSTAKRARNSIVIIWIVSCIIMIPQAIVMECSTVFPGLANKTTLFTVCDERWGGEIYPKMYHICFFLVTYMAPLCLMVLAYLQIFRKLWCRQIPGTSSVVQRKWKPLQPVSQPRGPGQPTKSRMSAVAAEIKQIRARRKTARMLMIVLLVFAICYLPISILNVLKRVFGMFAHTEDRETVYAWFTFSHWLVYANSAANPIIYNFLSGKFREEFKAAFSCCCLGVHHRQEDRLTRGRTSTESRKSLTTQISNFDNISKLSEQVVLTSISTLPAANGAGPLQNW
# Assay: Measurement of orexin type 2 receptor agonist activity (calcium fluorescence, Fluo-4 AM, FDSS)
# Type: cell-based
# Conditions: test compound 3 μM; CHO cells expressing human OX2 receptor; DMSO = 0%, orexin A (human) = 100%
# Summary of the method: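 Agonist response scaled between vehicle (0%) and human orexin A at 10 nM final (100%), from 2-min kinetic Fluo-4 fluorescence reads. Stable hOX2R CHO-K1 clone, dye-loaded in HBSS/20 mM HEPES/0.1% BSA with 1.25 mM probenecid before compound addition.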
row,Compound,"OX2R agonist activity (3 μM, %) [%]"
1,"O=C([C@@H]1C[C@@]1(F)c1ccc(F)cc1-c1c(F)cccc1F)N1C[C@@H](F)[C@H]1CNS(=O)(=O)CBr [Example 431, 1-bromo-N-({(2R,3R)-3-fluoro-1-[(1S,2S)-2-fluoro-2-(2′,5,6′-trifluoro[1,1′-biphenyl]-2-yl)cyclopropane-1-carbonyl]azetidin-2-yl}methyl)methanesulfonamide]",95
2,"O=C(C1CC1c1ccccc1-c1c(F)cccc1F)N1CCCC(NS(=O)(=O)C2CC2)C1 (racemic) [Example 123, a mixture of rac-N-{(3R)-1-[(1R,2R)-2-(2′,6′-difluoro[1,1′-biphenyl]-2-yl)cyclopropane-1-carbonyl]piperidin-3-yl}cyclopropanesulfonamide and rac-N-{(3S)-1-[(1R,2R)-2-(2′,6′-difluoro[1,1′-biphenyl]-2-yl)cyclopropane-1-carbonyl]piperidin-3-yl}cyclopropanesulfonamide]",100
3,"CS(=O)(=O)NC1CCN(C(=O)C2CC2c2c(F)cccc2-c2ccccc2F)C1 (racemic) [Example 188, a mixture of rac-N-{(3R)-1-[(1R,2R)-2-(2′,3-difluoro[1,1′-biphenyl]-2-yl)cyclopropane-1-carbonyl]pyrrolidin-3-yl}methanesulfonamide and rac-N-{(3S)-1-[(1R,2R)-2-(2′,3-difluoro[1,1′-biphenyl]-2-yl)cyclopropane-1-carbonyl]pyrrolidin-3-yl}methanesulfonamide]",86
4,"CS(=O)(=O)NC[C@H]1[C@H](C(F)F)CN1C(=O)[C@@H]1C[C@@]1(F)c1ccccc1-c1c(F)cccc1F [Example 405, N-{[(2R,3R)-1-[(1S,2S)-2-(2′,6′-difluoro[1,1′-biphenyl]-2-yl)-2-fluorocyclopropane-1-carbonyl]-3-(difluoromethyl)azetidin-2-yl]methyl}methanesulfonamide]",96
5,"CC1[C@@H](NS(C)(=O)=O)CCN1C(=O)[C@@H]1C[C@H]1c1ccccc1-c1c(F)cccc1F (mixture of isomers) [Example 261, a mixture of N-{(2R,3R)-1-[(1R,2R)-2-(2′,6′-difluoro[1,1′-biphenyl]-2-yl)cyclopropane-1-carbonyl]-2-methylpyrrolidin-3-yl}methanesulfonamide and N-{(2S,3S)-1-[(1R,2R)-2-(2′,6′-difluoro[1,1′-biphenyl]-2-yl)cyclopropane-1-carbonyl]-2-methylpyrrolidin-3-yl}methanesulfonamide]",88
6,"CO[C@@H]1CN(C(=O)[C@@H]2C[C@@]2(F)c2ccccc2-c2c(F)cccc2F)[C@@H]1CNS(C)(=O)=O [Example 383, N-({(2R,3R)-1-[(1S,2S)-2-(2′,6′-difluoro[1,1′-biphenyl]-2-yl)-2-fluorocyclopropane-1-carbonyl]-3-methoxyazetidin-2-yl}methyl)methanesulfonamide]",72
7,"CS(=O)(=O)NC1CCN(C(=O)C2CC2c2c(F)cccc2-c2c(F)cccc2F)C1 (racemic) [Example 26, a mixture of rac-N-{(3R)-1-[(1R,2R)-2-(2′,3,6′-trifluoro[1,1′-biphenyl]-2-yl)cyclopropane-1-carbonyl]pyrrolidin-3-yl}methanesulfonamide and rac-N-{(3S)-1-[(1R,2R)-2-(2′,3,6′-trifluoro[1,1′-biphenyl]-2-yl)cyclopropane-1-carbonyl]pyrrolidin-3-yl}methanesulfonamide]",104
8,"CS(=O)(=O)NC[C@@H]1[C@H](F)CN1C(=O)[C@@H]1C[C@@]1(F)c1ccc(F)cc1-c1c(F)cccc1F [Example 413, N-({(2R,3R)-3-fluoro-1-[(1S,2S)-2-fluoro-2-(2′,5,6′-trifluoro[1,1′-biphenyl]-2-yl)cyclopropane-1-carbonyl]azetidin-2-yl}methyl)methanesulfonamide]",109
9,"O=C(C1CC1c1ccccc1-c1c(F)cccc1F)N1CCC[C@H](NS(=O)(=O)CF)C1 (mixture of isomers) [Example 207, a mixture of N-{(3S)-1-[(1R,2R)-2-(2′,6′-difluoro[1,1′-biphenyl]-2-yl)cyclopropane-1-carbonyl]piperidin-3-yl}-1-fluoromethanesulfonamide and N-{(3S)-1-[(1S,2S)-2-(2′,6′-difluoro[1,1′-biphenyl]-2-yl)cyclopropane-1-carbonyl]piperidin-3-yl}-1-fluoromethanesulfonamide]",101
10,"CS(=O)(=O)NC[C@@H]1[C@H](CF)CN1C(=O)[C@@H]1C[C@@]1(F)c1ccccc1-c1c(F)cccc1F [Example 398, N-{[(2S,3R)-1-[(1S,2S)-2-(2′,6′-difluoro[1,1′-biphenyl]-2-yl)-2-fluorocyclopropane-1-carbonyl]-3-(fluoromethyl)azetidin-2-yl]methyl}methanesulfonamide]",97
11,"CS(=O)(=O)N[C@H]1CCN(C(=O)C2C(c3ccccc3-c3c(F)cccc3F)C2(F)F)C1 (stereo partly drawn) [Example 328, N-{(3S)-1-[(1R,3R)-3-(2′,6′-difluoro[1,1′-biphenyl]-2-yl)-2,2-difluorocyclopropane-1-carbonyl]pyrrolidin-3-yl}methanesulfonamide, or N-{(3S)-1-[(1R,3R)-3-(2′,6′-difluoro[1,1′-biphenyl]-2-yl)-2,2-difluorocyclopropane-1-carbonyl]pyrrolidin-3-yl}methanesulfonamide]",94
12,"CS(=O)(=O)NC1CCCN(C(=O)C2CC2c2c(F)cccc2-c2c(F)cccc2F)C1 (racemic) [Example 31, a mixture of rac-N-{(3R)-1-[(1R,2R)-2-(2′,3,6′-trifluoro[1,1′-biphenyl]-2-yl)cyclopropane-1-carbonyl]piperidin-3-yl}methanesulfonamide and rac-N-{(3S)-1-[(1R,2R)-2-(2′,3,6′-trifluoro[1,1′-biphenyl]-2-yl)cyclopropane-1-carbonyl]piperidin-3-yl}methanesulfonamide]",101
13,"CS(=O)(=O)NC1CCCN(C(=O)C2CC2c2cccc(F)c2-c2ccccc2F)C1 (racemic) [Example 105, a mixture of rac-N-{(3R)-1-[(1R,2R)-2-(2′,6-difluoro[1,1′-biphenyl]-2-yl)cyclopropane-1-carbonyl]piperidin-3-yl}methanesulfonamide and rac-N-{(3S)-1-[(1R,2R)-2-(2′,6-difluoro[1,1′-biphenyl]-2-yl)cyclopropane-1-carbonyl]piperidin-3-yl}methanesulfonamide]",60
14,"CS(=O)(=O)NC1CCN(C(=O)C2CC2c2ccccc2-c2ccccc2F)C1 (racemic) [Example 12, a mixture of rac-N-{(3R)-1-[(1R,2R)-2-(2′-fluoro[1,1′-biphenyl]-2-yl)cyclopropane-1-carbonyl]pyrrolidin-3-yl}methanesulfonamide and rac-N-{(3S)-1-[(1R,2R)-2-(2′-fluoro[1,1′-biphenyl]-2-yl)cyclopropane-1-carbonyl]pyrrolidin-3-yl}methanesulfonamide]",66
15,"N-({(2S,3R)-1-[(1R,2R)-2-fluoro-2-(2′- fluoro[1,1′-biphenyl]-2- yl)cyclopropane-1-carbonyl]-3- methylazetidin-2- yl}methyl)ethanesulfonamide, or N- ({(2S,3R)-1-[(1S,2S)-2-fluoro-2-(2′- fluoro[1,1′-biphenyl]-2- yl)cyclopropane-1-carbonyl]-3- methylazetidin-2- yl}methyl)ethanesulfonamide [Example 439]",107
16,"CS(=O)(=O)NC1CCN(C(=O)C2CC2c2ccccc2-c2ccccc2Cl)C1 (racemic) [Example 85, a mixture of rac-N-{(3R)-1-[(1R,2R)-2-(2′-chloro[1,1′-biphenyl]-2-yl)cyclopropane-1-carbonyl]pyrrolidin-3-yl}methanesulfonamide and rac-N-{(3S)-1-[(1R,2R)-2-(2′-chloro[1,1′-biphenyl]-2-yl)cyclopropane-1-carbonyl]pyrrolidin-3-yl}methanesulfonamide]",68
17,"CS(=O)(=O)NC[C@@H]1[C@H](F)CN1C(=O)C1(CC#N)CC1c1ccccc1-c1c(F)cccc1F (stereo partly drawn) [Example 428, N-({(2R,3R)-1-[(1R,2R)-1-(cyanomethyl)-2-(2′,6′-difluoro[1,1′-biphenyl]-2-yl)cyclopropane-1-carbonyl]-3-fluoroazetidin-2-yl}methyl)methanesulfonamide, or N-({(2R,3R)-1-[(1S,2S)-1-(cyanomethyl)-2-(2′,6′-difluoro[1,1′-biphenyl]-2-yl)cyclopropane-1-carbonyl]-3-fluoroazetidin-2-yl}methyl)methanesulfonamide]",53
18,"CS(=O)(=O)NC1CCCN(C(=O)C2CC2c2cnccc2-c2c(F)cccc2F)CC1 (racemic) [Example 206, a mixture of rac-N-[(4R)-1-{(1R,2R)-2-[4-(2,6-difluorophenyl)pyridin-3-yl]cyclopropane-1-carbonyl}azepan-4-yl]methanesulfonamide and rac-N-[(4S)-1-{(1R,2R)-2-[4-(2,6-difluorophenyl)pyridin-3-yl]cyclopropane-1-carbonyl}azepan-4-yl]methanesulfonamide]",87
